Experimental data published in patent publication US10966426B2, “Herbicidal compositions comprising phenylpyrimidines” (BASF SE, priority 2016, dated 2021).
Read-outs that look alike come from different tables or passages of the source.

Legend:
Assay type in all cases: in vivo
[1] = system: Alopecurus myosuroides; assay: greenhouse pre-emergence treatment, ALOMY
Outline: (§1)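 Pre-emergence spray of compounds, alone or as combinations formulated as 10% emulsion concentrate in water, directly after sowing in loamy sand (~3.0% humus); pots hooded until rooting, kept at 10-25° C or 20-35° C per species for 2 to 4 weeks. Damage scored 0-100 (100 = no emergence/complete destruction); Colby expected value E=X+Y−(X·Y/100).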

[2] = system: Echinocloa crus-galli; assay: greenhouse pre-emergence treatment, ECHCG; details: 20 DAT
Description: (§2) The culture containers used were plastic pots containing loamy sand with approximately 3.0% of humus as substrate. The seeds of the test plants were sown separately for each species.
For the pre-emergence treatment, the active compounds, suspended or emulsified in water, were applied directly after sowing by means of finely distributing nozzles. The containers were irrigated gently to promote germination and growth and subsequently covered with transparent plastic hoods until the plants had rooted. This cover caused uniform germination of the test plants unless this was adversely affected by the active compounds.
(§3) Depending on the species, the plants were kept at 10-25° C. and 20-35° C., respectively.
(§4) The test period extended over 2 to 4 weeks. During this time, the plants were tended and their response to the individual treatments was evaluated.
(§5) Evaluation was carried out using a scale from 0 to 100. 100 means no emergence of the plants, or complete destruction of at least the above-ground parts, and 0 means no damage or normal course of growth. A good herbicidal activity is given at values of at least 70, and very good herbicidal activity is given at values of at least 85.
(§6) The respective stated components A and B, and if appropriate, C were formulated as a 10% by weight strength emulsion concentrate and, with addition of the amount of solvent system, introduced into the spray liquor used for applying the active compound. In the examples, the solvent used was water.
(§7) In the examples below, using the method of S. R. Colby (1967) “Calculating synergistic and antagonistic responses of herbicide combinations”, Weeds 15, p. 22ff., the value E, which is expected if the activity of the individual active compounds is only additive, was calculated. E=X+Y−(X·Y/100) where X=effect in percent using herbicide A at an application rate a; • Y=effect in percent using herbicide B at application rate b; • E=expected effect (in %) of herbicide A+herbicide B at application rates a+b.

[3] = system: Digitaria sanguinalis; assay: greenhouse pre-emergence treatment, DIGSA; details: DIGSA; for % activity, solo application: 62.5 gai/ha
Outline: as §1

[4] = system: Bromus sterilis; assay: greenhouse pre-emergence treatment, BROST; details: BROST
Outline: as §1

[5] = system: Poa annua; assay: greenhouse pre-emergence treatment, POAAN; details: 20 DAT
Outline: as §1

[6] = system: Lolium multiflorum; assay: greenhouse pre-emergence treatment, LOLMU; details: Lolium multiflorum, 480 h, LOLMU, 20 DAT
Outline: as §1

[7] = system: Lolium perenne; assay: greenhouse post-emergence treatment, LOLPE; details: 20 DAT, 2nd series of rows
Method: as §2
To this end, the test plants were either sown directly, and grown in the same containers, or they were first grown separately as seedlings and transplanted into the test containers a few days prior to treatment.
as §3, §4, §5
In the examples, the solvent used was water.
In the examples below, using the method of S. R. Colby (1967) “Calculating synergistic and antagonistic responses of herbicide combinations”, Weeds 15, p. […] E=X+Y−(X·Y/100) where X=effect in percent using herbicide A at an application rate a; • Y=effect in percent using herbicide B at application rate b; • E=expected effect (in %) of herbicide A+herbicide B at application rates a+b.

[8] = system: BRAPL; assay: greenhouse pre-emergence treatment, BRAPL; details: Table X9, 21 DAT, solo Ex. 5 125 gai/ha
[9] = system: Setaria viridis; assay: greenhouse pre-emergence treatment, SETVI; details: SETVI
Outline: as §1

[10] = system: Stellaria media; assay: greenhouse post-emergence treatment, STEME; details: Stellaria media
Outline: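 Post-emergence greenhouse spray on 3–15 cm plants, sown direct or transplanted a few days before treatment. Scored visually on a 0–100 scale after 2 to 4 weeks; expected additive effect computed by Colby: E=X+Y−(X·Y/100).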

[11] = system: Helianthus annuus; assay: greenhouse post-emergence treatment, HELAN; details: for % activity: cinmethylin solo (EC 750 g/l), 21 DAT
Method: as §2
For the post-emergence treatment, the test plants were grown to a plant height of from 3 to 15 cm, depending on the plant habit, and only then treated with the active compounds which had been suspended or emulsified in water. To this end, the test plants were either sown directly, and grown in the same containers, or they were first grown separately as seedlings and transplanted into the test containers a few days prior to treatment.
as §3, §4, §5, §6, §7

[12] = Table X13, 20 DAT, solo Ex. 5 31.25 gai/ha
[13] = solo Ex. 5 31.25 gai/ha, 20 DAT
[14] = 20 DAT, solo Ex. 5 31.25 gai/ha
[15] = Table X9, 21 DAT, solo Ex. 5 125 gai/ha

## Cc1ccc(NC(=O)N(C)C)cc1Cl [chlorotoluron]
[1]; chlorotoluron solo 62.5 gai/ha, 20 DAT
  % activity: 0%
[1]; chlorotoluron solo 125 gai/ha, 20 DAT
  % activity: 0%
[1]; chlorotoluron solo 250 gai/ha, 20 DAT
  % activity: 0%
[2]; chlorotoluron solo 62.5 gai/ha
  % activity: 0%
[2]; chlorotoluron solo 125 gai/ha
  % activity: 0%
[2]; chlorotoluron solo 250 gai/ha
  % activity: 35%
[2]; chlorotoluron solo 500 gai/ha
  % activity: 25%
[3]; Digitaria sanguinalis, 480 h, chlorotoluron solo 125 gai/ha, 20 DAT
  pest or weed control at 125 g/ha: 0%
[3]; Digitaria sanguinalis, 480 h, chlorotoluron solo 500 gai/ha, 20 DAT
  pest or weed control at 500 g/ha: 65%
[4]; Bromus sterilis, 480 h, chlorotoluron solo 62.5 gai/ha, 20 DAT
  pest or weed control at 62.5 g/ha: 0%
[4]; Bromus sterilis, 480 h, chlorotoluron solo 250 gai/ha, 20 DAT
  pest or weed control at 250 g/ha: 0%
[4]; Bromus sterilis, 480 h, chlorotoluron solo 500 gai/ha, 20 DAT
  pest or weed control at 500 g/ha: 0%
[5]; chlorotoluron solo 125 gai/ha
  % activity: 0%
[5]; chlorotoluron solo 250 gai/ha
  % activity: 20%
[6]; chlorotoluron solo 250 gai/ha
  pest or weed control at 250 g/ha: 0%
[6]; chlorotoluron solo 500 gai/ha
  pest or weed control at 500 g/ha: 10%

## O=C(O)c1nc(C2CC2)ncc1-c1ccccc1Cl [Ex. 5]
[1]; [12]
  % activity: 90%
[1]; [13]
  % activity: 90%
[1]; solo Ex. 5 62.5 gai/ha, 20 DAT
  % activity: 90%
[7]; solo Ex. 5 15 gai/ha
  % activity: 85%
[7]; solo Ex. 5 62.5 gai/ha
  % activity: 80%
[7]; solo Ex. 5 250 gai/ha
  % activity: 85%
[7]; solo Ex. 5 500 gai/ha
  % activity: 85%
[2]; Ex. 5 solo, 62.5 gai/ha
  % activity: 85%
[2]; solo, 31.25 gai/ha
  % activity: 95%
[2]; solo, 125 gai/ha
  % activity: 95%
[8]
  % activity: 90%
[3]; 20 DAT, Table X2
  % activity, solo application: 65%
[3]; 20 DAT, Table X6
  % activity, solo application: 65%
[3]; [14]
  % activity: 40%
[3]; [15]
  % activity: 90%
[3]; Table X13, 20 DAT, solo Ex. 5 125 gai/ha
  % activity: 90%
[3]; solo, 31.25 gai/ha, 20 DAT
  % activity: 65%
[3]; solo, 125 gai/ha, 21 DAT
  % activity: 60%
[3]; solo, 250 gai/ha, 21 DAT
  % activity: 65%
[4]; 62.5 gai/ha, 20 DAT, Table X1
  % activity, solo application: 65%
[4]; 125 gai/ha, 20 DAT, Table X1
  % activity, solo application: 80%
[4]; 125 gai/ha, 20 DAT, Table X6
  % activity, solo application: 65%
[4]; [14]
  % activity: 5%
[4]; solo, 62.5 gai/ha, 20 DAT
  % activity: 45%
[4]; solo, 125 gai/ha, 21 DAT
  % activity: 75%
[9]; 31.25 gai/ha, 20 DAT, Table X6
  % activity, solo application: 0%
[9]; 125 gai/ha, 20 DAT, Table X1
  % activity, solo application: 45%
[9]; 125 gai/ha, 20 DAT, Table X2
  % activity, solo application: 60%
[9]; 125 gai/ha, 20 DAT, Table X6
  % activity, solo application: 60%
[9]; 250 gai/ha, 20 DAT, Table X1
  % activity, solo application: 65%
[9]; Ex. 5 solo, 125 gai/ha, 20 DAT
  % activity: 50%
[9]; 20 DAT, solo Ex. 5 62.5 gai/ha
  % activity: 30%
[9]; 20 DAT, solo Ex. 5 125 gai/ha
  % activity: 50%
[9]; [13]
  % activity: 35%
[9]; solo Ex. 5 125 gai/ha, 20 DAT
  % activity: 45%
[9]; [15]
  % activity: 50%
[9]; [12]
  % activity: 20%
[9]; Table X13, 20 DAT, solo Ex. 5 62.5 gai/ha
  % activity: 35%
[9]; solo, 31.25 gai/ha, 20 DAT
  % activity: 10%
[9]; solo, 62.5 gai/ha, 21 DAT
  % activity: 45%
[9]; solo, 125 gai/ha, 20 DAT
  % activity: 45%
[9]; solo, 125 gai/ha, 21 DAT
  % activity: 60%
[9]; solo, 250 gai/ha, 21 DAT
  % activity: 65%

## CSc1nnc(C(C)(C)C)c(=O)n1N [metribuzin]
[10]; 480 h, 20 DAT, STEME, metribuzin WG 70% solo 35 gai/ha
  inhibition at 35 g/ha: 80%
[2]; Echinochloa crus-galli, 480 h, metribuzin WG 70% solo 62.5 gai/ha
  inhibition at 62.5 g/ha: 30%
[2]; solo, WG 70%, 31.25 gai/ha
  % activity: 0%
[2]; solo, WG 70%, 62.5 gai/ha
  % activity: 30%
[3]; Digitaria sanguinalis, 480 h, solo, WG 70%, 31.25 gai/ha, 20 DAT
  pest or weed control at 31.25 g/ha: 40%
[11]; Helianthus annuus, 480 h, 20 DAT, HELAN, metribuzin WG 70% solo 35 gai/ha
  inhibition at 35 g/ha: 70%
[4]; Bromus sterilis, 480 h, 20 DAT, metribuzin WG 70% solo 31.25 gai/ha
  inhibition at 31.25 g/ha: 0%
[4]; Bromus sterilis, 480 h, 20 DAT, metribuzin WG 70% solo 62.5 gai/ha, read-out: % activity
  inhibition at 62.5 g/ha: 10%
[4]; Bromus sterilis, 480 h, 20 DAT, metribuzin WG 70% solo 250 gai/ha, read-out: % activity
  inhibition at 250 g/ha: 60%
[4]; Bromus sterilis, 480 h, solo, WG 70%, 62.5 gai/ha, 20 DAT
  pest or weed control at 62.5 g/ha: 10%
[9]; solo, WG 70%, 31.25 gai/ha, 20 DAT
  % activity: 0%

## Cc1ccccc1CO[C@@H]1C[C@@]2(C(C)C)CC[C@]1(C)O2 (racemic) [cinmethylin]
[10]; 504 h, read-out: % activity
  pest or weed control at 62.5 g/ha: 0%
  pest or weed control at 125 g/ha: 10%
[11]; 62.5 gai/ha, HELAN
  % activity: 30%
[11]; 500 gai/ha, HELAN
  % activity: 60%
[4]; Bromus sterilis, 480 h, 62.5 gai/ha (EC 750 g/l), 20 DAT, Table X1, read-out: % activity, solo application
  inhibition at 62.5 g/ha: 55%
[4]; Bromus sterilis, 480 h, 250 gai/ha (EC 750 g/l), 20 DAT, Table X1, read-out: % activity, solo application
  inhibition at 250 g/ha: 75%
[9]; Setaria viridis, 480 h, 31.25 gai/ha (EC 750 g/l), 20 DAT, Table X1, read-out: % activity, solo application
  inhibition at 31.25 g/ha: 85%

## CCCCCCCCSC(=O)Oc1cc(Cl)nnc1-c1ccccc1 [pyridate]
[10]; 480 h, pyridate solo 112.5 gai/ha, 20 DAT, STEME
  inhibition at 112.5 g/ha: 25%
[10]; 480 h, pyridate solo 450 gai/ha, 20 DAT, STEME
  inhibition at 450 g/ha: 55%
[10]; 480 h, pyridate solo 900 gai/ha, 20 DAT, STEME
  inhibition at 900 g/ha: 70%
[11]; Helianthus annuus, 480 h, pyridate solo 225 gai/ha, 20 DAT, HELAN
  inhibition at 225 g/ha: 60%
[11]; Helianthus annuus, 480 h, pyridate solo 450 gai/ha, 20 DAT, HELAN
  inhibition at 450 g/ha: 70%

## CC(C)N(C(=O)COc1nnc(C(F)(F)F)s1)c1ccc(F)cc1 [flufenacet]
[11]; Helianthus annuus, 480 h, 20 DAT, flufenacet solo 125 gai/ha
  inhibition at 125 g/ha: 30%
